Measured values: US6200963A, “Aryl sulfonic acids as FSH antagonists” (American Home Products Corporation, priority 2000, dated 2001)
Counter-ions that a name gives are not always drawn. Like-named read-outs stand apart in the source and are kept apart here.

Legend:
FSH receptor [1] = molecular target: T1, FSH receptor (Homo sapiens, UniProt P23945); test: In Vitro Bio-assay of Agonists and Antagonists to the FSH Receptor (cAMP accumulation in CHO-3D2 cells); type: cell-based; design: expressed in transfected cells; host or cells: CHO-3D2 cells
T1 sequence (P23945 18-695): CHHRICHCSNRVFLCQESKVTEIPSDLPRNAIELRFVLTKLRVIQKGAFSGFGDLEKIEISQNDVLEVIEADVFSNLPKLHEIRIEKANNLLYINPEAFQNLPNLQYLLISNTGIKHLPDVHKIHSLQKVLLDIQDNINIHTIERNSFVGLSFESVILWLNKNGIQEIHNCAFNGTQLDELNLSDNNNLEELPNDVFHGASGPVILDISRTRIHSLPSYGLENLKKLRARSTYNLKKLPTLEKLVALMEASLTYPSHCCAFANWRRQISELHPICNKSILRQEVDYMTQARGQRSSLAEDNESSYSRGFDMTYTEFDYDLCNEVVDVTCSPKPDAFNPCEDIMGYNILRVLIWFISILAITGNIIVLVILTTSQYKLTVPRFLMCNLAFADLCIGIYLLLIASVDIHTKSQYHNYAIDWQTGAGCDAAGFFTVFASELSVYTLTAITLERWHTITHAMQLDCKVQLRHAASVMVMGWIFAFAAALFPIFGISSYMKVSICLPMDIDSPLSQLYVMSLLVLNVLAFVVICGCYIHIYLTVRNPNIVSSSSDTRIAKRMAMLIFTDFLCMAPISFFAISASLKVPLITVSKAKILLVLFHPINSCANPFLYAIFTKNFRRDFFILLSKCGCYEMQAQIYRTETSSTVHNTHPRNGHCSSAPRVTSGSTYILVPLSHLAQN
Procedure: Preparation of CHO-3D2 Cells; CHO-3D2 cells were plated into 96-well Nunc tissue culture plates at a density of 30,000 cells/well in DMEM/F12 medium (Gibco/BRL, Grand Island, N.Y.) supplemented with 5% Fetal Bovine Serum (Hyclone, Fetal Clone II), 2 mM L-glutamine and penicillin/streptomycin (100 U/mL).
The plate was split in half to test a single compound in both agonist and antagonist mode on the same plate.
For agonist mode, compounds were tested using 5 different concentrations in a dose-response paradigm using one column as a control (challenge medium alone) in agonist mode.
The 96-well format allowed for the capability to test 4 columns of compound, using one of the remaining columns for negative control (challenge medium alone) and the other remaining column for ampositive control (ED20 of FSH alone).
The doses chosen to test each compound were extrapolated from the initial screening process (receptor binding data).
Data were analyzed statistically by analysis of variance and significant differences between treatments and control determined by Dunnett's test. In antagonist mode, a Duncan's test was used.
Reference Compounds: Test compounds were compared to the effect of purified or recombinant human FSH.

FSH receptor [2] = molecular target: T1, FSH receptor; test: FSH Receptor Radioligand Membrane Binding Assay ([125I]hFSH, CHO cell membranes); design: expressed in transfected cells; membrane homogenate; conditions: for inhibition at 10 µM: read-out: % Inhibition at 10 μM conc.; for inhibition at 100 µM: read-out: % Inhibition at 100 μM conc.
Procedure: FSH Receptor Radioligand Membrane Binding Assay
Membrane Source: Chinese hamster ovarian cells stably transfected with the human FSH receptor were cultured (Ultra CHO medium containing 1% fetal bovine serum and 200 μg/mL G418) in and harvested. Cells were collected by centrifugation and resulting cell pellets were frozen and stored at -70° C.
Membrane Receptor Preparation: Frozen cell pellets were weighed and resuspended in binding buffer to a final concentration of 30 mg wet weight/mL. Cell suspension for each pellet was homogenized using a Tempest homogenizer (setting=1; 5 strokes; VirTis, Gardiner, N.Y.). Cell homogenates were pooled and 35 mL aliquots were transferred to 50-mL polypropylene copolymer centrifuge tubes (Nalgene cat. #3110-0500). Tubes were spun at 12,000 rpm (SS34 rotor) for 12 min at 4° C. Resulting supernatant fractions were discarded and pellets were stored at -70° C. until use. On the day of the assay, 35 mL binding buffer was added to each tube (35 mL membrane suspension was sufficient for three 96-well plates). The membrane pellet was dispersed by trituration using a pipet. The resulting suspension was homogenized using a Tempest homogenizer (3 strokes at setting=1).
Receptor Binding Assay: Membrane homogenate (100 μl) was added to each well of a 96-well microtiter plate (Falcon # 3077). All reactions were tested in triplicate. Test compound solutions (50 μl) were added to the designated wells. Total bound counts were determined by adding 50 μl binding buffer containing 4% DMSO to the designated wells. […] Plates were pre-incubated for 15 min at room temperature on shaking platform (setting=3). After preincubation [^125 I]FSH (50 μl) was added to each well and plates were incubated for 2 h at room temperature on shaking platform (setting=3). The reaction was terminated by transfer of the membrane preparation to glass fiber filters (Blue Mat #11740; 102×256 mm; Skatron Instruments, Sterling, Va.) that had been pretreated with 1% BSA in wash buffer for at least 30 min, but not longer than 1 h using a 96-well microtiter vacuum harvester (Skatron Instruments). The membrane preparation was washed with 5 cycles of ice-cold wash buffer (200 μl/well/cycle) followed by a pulse wash of 3 cycles (100 μl/well/cycle). The total wash volume per well was 1.3 mL. The filters were dried by a 10 sec aspiration. Disks corresponding to each well of the microtiter plate were punched out of the filter mat into 12×75 mm polypropylene tubes. The radioactivity present on each of the disks was measured using a gamma counter.
An FSH dose response curve (0.001, 0.01, 0.1, 1, 10, and 100 nM) was generated for each binding assay to monitor assay to assay variability.
FSH Receptor Radioligand Membrane Binding Assay Buffers and Reagents
Binding Buffer (pH 7.2): 10 mM Trizma®-HCl (Sigma)
Binding buffer was prepared in 1 l volumes containing Trizma-HCl, MgCl2, CaCl2 and sodium azide, the pH was adjusted to 7.2 with NaOH, and stored at 4° C. until use. BSA was weighed out on the day of the assay and added to the amount of buffer required for the assay (usually 150 mL). The protease inhibitors were prepared as 1 mg/mL stocks (aprotinin, leupeptin, and phosphoramidon were prepared in binding buffer without BSA and protease inhibitors; pepstatin and PMSF were prepared in methanol), stored in 1 mL aliquots at -70° C., and added to the binding buffer on the day of the assay.
Wash Buffer (pH 7.2): 50 mM Trizma®-HCl (Sigma)
Wash buffer was prepared containing Trizma-HCl, MgCl2 and EDTA, the pH was adjusted to 7.2 with NaOH, and stored at 4° C.
Filter Soak Buffer (pH 7.2): Wash Buffer
BSA was weighed out on the day of the assay and added to 300 mL of wash buffer. The filter soak buffer was used for two assays before being discarded.
A portion of the stock solution was diluted in binding buffer to a concentration of 200 pM. […]

FSH receptor [3] = molecular target: T2, FSH receptor (Rattus norvegicus, UniProt P20395); test: In Vitro Bioassay of Agonists and Antagonists to the FSH Receptor using Primary Cultures of Rat Granulosa (estradiol secretion); type: cell-based; design: immature female Sprague-Dawley rats (Charles River Laboratories, Wilmington, Mass.) were used as donors for ovarian granulosa cells; endogenous in cells; host or cells: primary ovarian granulosa cells of immature female Sprague-Dawley rats; conditions: antagonist mode; ED50 of FSH (0.5 ng/mL), rat granulosa cells, 72 h; read-out: IC50 (half-maximal inhibition of FSH-induced estradiol secretion)
T2 sequence (P20395 18-692): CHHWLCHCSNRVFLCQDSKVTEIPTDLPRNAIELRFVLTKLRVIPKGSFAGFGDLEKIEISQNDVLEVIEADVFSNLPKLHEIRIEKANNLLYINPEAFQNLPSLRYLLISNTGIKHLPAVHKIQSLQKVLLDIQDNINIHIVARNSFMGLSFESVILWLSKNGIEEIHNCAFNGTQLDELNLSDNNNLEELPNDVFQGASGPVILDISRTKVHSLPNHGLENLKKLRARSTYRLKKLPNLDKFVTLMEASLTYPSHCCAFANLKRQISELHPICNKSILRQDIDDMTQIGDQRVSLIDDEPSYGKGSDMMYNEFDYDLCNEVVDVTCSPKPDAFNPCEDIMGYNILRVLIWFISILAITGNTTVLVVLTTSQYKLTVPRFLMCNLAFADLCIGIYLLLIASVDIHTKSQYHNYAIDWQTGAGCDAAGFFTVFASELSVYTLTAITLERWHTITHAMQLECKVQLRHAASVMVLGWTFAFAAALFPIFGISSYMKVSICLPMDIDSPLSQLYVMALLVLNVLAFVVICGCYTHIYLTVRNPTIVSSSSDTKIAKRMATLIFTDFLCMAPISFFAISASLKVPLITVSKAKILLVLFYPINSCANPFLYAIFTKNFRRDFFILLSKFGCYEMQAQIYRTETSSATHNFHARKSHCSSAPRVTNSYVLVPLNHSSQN

FSH receptor [4] = molecular target: T2, FSH receptor; conditions: literature, in words; cited from earlier work
testosterone production [5] = conditions: humans administered suramin; in words; cited from earlier work
testosterone production [6] = conditions: rats administered suramin; in words; cited from earlier work
[7] = antagonist mode, hFSH-induced cAMP accumulation (ED20 of FSH, […]), CHO-3D2 cells, 30 min
[8] = 10 μM, [125I]hFSH binding, CHO membranes with human FSH receptor
[9] = 100 μM, [125I]hFSH binding, CHO membranes with human FSH receptor

| SMILES | inhibition at 10 µM (FSH receptor [2]; [8]) [%] | inhibition at 100 µM (FSH receptor [2]; [9]) [%] | IC50 (FSH receptor [2]) [µM] | also measured |
| --- | --- | --- | --- | --- |
| COc1ccc(N=Nc2c(S(=O)(=O)O)cc3cc(Nc4nc(Cl)nc(N(CCC(N)=O)CCC(N)=O)n4)ccc3c2O)cc1 [Example 9, 7-{4-[Bis-(2-carbamoyl-ethyl)-amino]-6-chloro-[1,3,5]-triazin-2-ylamino)-4-hydroxy-3-(4-methoxy-phenylazo)-napthalene-2-sulfonic Acid, Sodium Salt] | 74 | 94 | – | IC50 (FSH receptor [1]; [7]): 1.4 µM; % Inhibition at 10 μM conc. (FSH receptor [2]; 10 μM, [125I]hFSH binding, CHO membranes with human FSH receptor, Sodium Salt): 66%; % Inhibition at 100 μM conc. (FSH receptor [2]; 100 μM, [125I]hFSH binding, CHO membranes with human FSH receptor, Sodium Salt): 98%; IC50 (FSH receptor [2]; [125I]hFSH binding, CHO membranes with human FSH receptor, Sodium Salt): 5 µM; IC50 (FSH receptor [2]; [125I]hFSH binding, CHO membranes with human FSH receptor, listed as 3, Sodium Salt): 6 µM; IC50 (FSH receptor [3]): 1.9 µM |
| COc1ccc(N=Nc2c(S(=O)(=O)O)cc3cc(Nc4nc(Cl)nc(N(CCO)CCO)n4)ccc3c2O)cc1 [Example 11, 7-{4-[Bis-(2-hydroxy-ethyl)-amino]-6-chloro-[1,3,5]-triazin-2-ylamino)-4-hydroxy-3-(4-methoxy-phenylazo)-napthalene-2-sulfonic Acid, Sodium Salt] | 29 | 71 | – | IC50 (FSH receptor [1]; [7]): 10 µM; IC50 (FSH receptor [2]; [125I]hFSH binding, CHO membranes with human FSH receptor): 8.6 µM |
| COc1ccc(N=Nc2c(S(=O)(=O)O)cc3cc(NC(=O)c4ccc(N(C)C)cc4)ccc3c2O)cc1 [Example 12, 7-(4-Dimethylamino-benzoylamino)-4-hydroxy-3-(4-methoxy-phenylazo)-napthalene-2-sulfonic Acid, Sodium Salt] | – | – | 101 | – |
| COc1ccc(N=Nc2c(S(=O)(=O)O)cc3cc(NC(=O)c4ccccc4)ccc3c2O)cc1 [Example 16, 7-Benzoylamino-4-hydroxy-3-(4-methoxy-phenylazo)-napthalene-2-sulfonic Acid] | 11 | 76 | 79 | – |
| Cc1ccc(C(=O)Nc2ccc(S(=O)(=O)O)c3cc(S(=O)(=O)O)cc(S(=O)(=O)O)c23)cc1NC(=O)c1cccc(NC(=O)Nc2cccc(C(=O)Nc3cc(C(=O)Nc4ccc(S(=O)(=O)O)c5cc(S(=O)(=O)O)cc(S(=O)(=O)O)c45)ccc3C)c2)c1 [suramin] | – | – | – | inhibition of FSH binding to its receptor (FSH receptor [4]): inhibit FSH binding to its receptor; testosterone production (testosterone production [5]): decrease in testosterone production; testosterone production (testosterone production [6]): decrease in testosterone production |

Continued, in another order:

| inhibition at 10 µM (FSH receptor [2]; [8]) [%] | inhibition at 100 µM (FSH receptor [2]; [9]) [%] | IC50 (FSH receptor [2]) [µM] | SMILES | also measured |
| --- | --- | --- | --- | --- |
| 14 | 60 | 81 | COc1ccc(N=Nc2c(S(=O)(=O)O)cc3cc(NC(=O)c4cc(OC)cc(OC)c4)ccc3c2O)cc1 [Example 14, 7-(3,5-Dimethoxy-benzoylamino)-4-hydroxy-3-(4-methoxy-phenylazo)-napthalene-2-sulfonic Acid] | – |
| 10 | 8 | – | COc1ccc(N=Nc2c(S(=O)(=O)O)cc3cc(NC(=O)c4c(OC)cccc4OC)ccc3c2O)cc1 [Example 18, 7-(2,6-Dimethoxy-benzoylamino)-4-hydroxy-3-(4-methoxy-phenylazo)-napthalene-2-sulfonic Acid] | – |
| 19 | 100 | 14 | COc1ccc(N=Nc2c(S(=O)(=O)O)cc3cc(NC(=O)c4ccc(OC)c(OC)c4)ccc3c2O)cc1 [Example 19, 7-(3,4-Dimethoxy-benzoylamino)-4-hydroxy-3-(4-methoxy-phenylazo)-napthalene-2-sulfonic Acid] | IC50 (FSH receptor [1]): 16 µM |
